Experimental data from ChEMBL document CHEMBL3217491, “Design, synthesis and biological evaluation of imidazopyridine/pyrimidine-chalcone derivatives as potential anticancer agents” (2010).
Active and inactive are the calls of the source. The rule behind the calls is not given here.

How the values were obtained:
PC-3 = test: Growth inhibition of human PC3 cells after 48 hrs by SRB assay; format: functional; details: PC-3, 48 h
DU-145 = test: Growth inhibition of human DU145 cells after 48 hrs by SRB assay; format: functional; details: DU-145, 48 h
MCF7 [1] = test: Growth inhibition of human MCF7 cells after 48 hrs by SRB assay; format: functional; details: MCF7, 48 h
MDA-MB-231 = test: Growth inhibition of human MDA-MB-231 cells after 48 hrs by SRB assay; format: functional; details: MDA-MB-231, 48 h
[2] = Growth inhibition of human Hs578T cells after 48 hrs by SRB assay; format: functional; details: Hs-578T
[3] = Growth inhibition of human BT549 cells after 48 hrs by SRB assay; format: functional; details: BT-549, 48 h
T47D = test: Growth inhibition of human T47D cells after 48 hrs by SRB assay; format: functional
MDA-MB-468 = test: Growth inhibition of human MDA-MB-468 cells after 48 hrs by SRB assay; format: functional; details: MDA-MB-468, 48 h
[4] = Growth inhibition of human LOXIMVI cells after 48 hrs by SRB assay; format: functional; details: LOX IMVI
Malme-3M = test: Growth inhibition of human MALME-3M cells after 48 hrs by SRB assay; format: functional
M14 = test: Growth inhibition of human M14 cells after 48 hrs by SRB assay; format: functional; details: M14, 48 h
MDA-MB-435 = test: Growth inhibition of human MDA-MB-435 cells after 48 hrs by SRB assay; format: functional; details: MDA-MB-435, 48 h
SK-MEL-2 = test: Growth inhibition of human SK-MEL-2 cells after 48 hrs by SRB assay; format: functional; details: SK-MEL-2, 48 h
SK-MEL-28 = test: Growth inhibition of human SK-MEL-28 cells after 48 hrs by SRB assay; format: functional; details: SK-MEL-28, 48 h
SK-MEL-5 = test: Growth inhibition of human SK-MEL-5 cells after 48 hrs by SRB assay; format: functional; details: SK-MEL-5, 48 h
[5] = Growth inhibition of human UACC62 cells after 48 hrs by SRB assay; format: functional; details: UACC-62, 48 h
[6] = Growth inhibition of human UACC257 cells after 48 hrs by SRB assay; format: functional; details: UACC-257, 48 h
MCF7 [7] = test: Growth inhibition of human MCF7 cells assessed as cell viability at 4 uM after 24 hrs by MTT assay; format: functional, cell-based
MCF7 [8] = test: Cell cycle arrest in human MCF7 cells assessed as accumulation at G0/G1 phase at 4 uM after 24 hrs by propidium iodide staining-based flow cytometry (reference value: 64.04%); format: functional
MCF7 [9] = test: Cell cycle arrest in human MCF7 cells assessed as accumulation at S phase at 4 uM after 24 hrs by propidium iodide staining-based flow cytometry (reference value: 20.17%); format: functional
MCF7 [10] = test: Cell cycle arrest in human MCF7 cells assessed as accumulation at G2/M phase at 4 uM after 24 hrs by propidium iodide staining-based flow cytometry (reference value: 15.79%); format: functional
CCRF-CEM = test: Growth inhibition of human CCRF-CEM cells after 48 hrs by SRB assay; format: functional
HL-60(TB) = test: Growth inhibition of human HL-60(TB) cells after 48 hrs by SRB assay; format: functional; details: HL-60, 48 h
K562 = test: Growth inhibition of human K562 cells after 48 hrs by SRB assay; format: functional; details: K562, 48 h
[11] = Growth inhibition of human MOLT4 cells after 48 hrs by SRB assay; format: functional; details: MOLT-4, 48 h
SR = test: Growth inhibition of human SR cells after 48 hrs by SRB assay; format: functional
RPMI-8226 = test: Growth inhibition of human RPMI8226 cells after 48 hrs by SRB assay; format: functional; details: RPMI-8226, 48 h
A549 = test: Growth inhibition of human A549 cells after 48 hrs by SRB assay; format: functional; details: A549, 48 h
[12] = Growth inhibition of human EKVX cells after 48 hrs by SRB assay; format: functional
HOP-62 = test: Growth inhibition of human HOP62 cells after 48 hrs by SRB assay; format: functional; details: HOP-62, 48 h
[13] = Growth inhibition of human HOP92 cells after 48 hrs by SRB assay; format: functional; details: HOP-92, 48 h
NCI-H226 = test: Growth inhibition of human NCI-H226 cells after 48 hrs by SRB assay; format: functional; details: NCI-H226, 48 h
NCI-H23 = test: Growth inhibition of human NCI-H23 cells after 48 hrs by SRB assay; format: functional; details: NCI-H23, 48 h
NCI-H322M = test: Growth inhibition of human NCI-H322M cells after 48 hrs by SRB assay; format: functional
NCI-H460 = test: Growth inhibition of human NCI-H460 cells after 48 hrs by SRB assay; format: functional; details: NCI-H460, 48 h
NCI-H522 = test: Growth inhibition of human NCI-H522 cells after 48 hrs by SRB assay; format: functional; details: NCI-H522, 48 h
COLO 205 = test: Growth inhibition of human COLO205 cells after 48 hrs by SRB assay; format: functional; details: COLO 205, 48 h
[14] = Growth inhibition of human HCC2998 cells after 48 hrs by SRB assay; format: functional; details: HCC 2998, 48 h
HCT-116 = test: Growth inhibition of human HCT116 cells after 48 hrs by SRB assay; format: functional; details: HCT-116, 48 h
[15] = Growth inhibition of human HCT15 cells after 48 hrs by SRB assay; format: functional; details: HCT-15, 48 h
HT-29 = test: Growth inhibition of human HT-29 cells after 48 hrs by SRB assay; format: functional; details: HT-29, 48 h
KM12 = test: Growth inhibition of human KM12 cells after 48 hrs by SRB assay; format: functional; details: KM12, 48 h
SW-620 = test: Growth inhibition of human SW620 cells after 48 hrs by SRB assay; format: functional; details: SW-620, 48 h
SF-268 = test: Growth inhibition of human SF268 cells after 48 hrs by SRB assay; format: functional; details: SF-268, 48 h
[16] = Growth inhibition of human SF295 cells after 48 hrs by SRB assay; format: functional; details: SF-295, 48 h
[17] = Growth inhibition of human SF539 cells after 48 hrs by SRB assay; format: functional; details: SF-539, 48 h
SNB-19 = test: Growth inhibition of human SNB19 cells after 48 hrs by SRB assay; format: functional; details: SNB-19, 48 h
SNB-75 = test: Growth inhibition of human SNB75 cells after 48 hrs by SRB assay; format: functional; details: SNB-75, 48 h
U-251 = test: Growth inhibition of human U251 cells after 48 hrs by SRB assay; format: functional; details: U-251, 48 h
IGROV-1 = test: Growth inhibition of human IGROV1 cells after 48 hrs by SRB assay; format: functional; details: IGROV-1, 48 h
[18] = Growth inhibition of human OVCAR3 cells after 48 hrs by SRB assay; format: functional; details: OVCAR-3, 48 h
[19] = Growth inhibition of human OVCAR4 cells after 48 hrs by SRB assay; format: functional; details: OVCAR-4, 48 h
[20] = Growth inhibition of human OVCAR5 cells after 48 hrs by SRB assay; format: functional; details: OVCAR-5, 48 h
[21] = Growth inhibition of human OVCAR8 cells after 48 hrs by SRB assay; format: functional; details: OVCAR-8, 48 h
[22] = Growth inhibition of human NCI-ADR-RES cells after 48 hrs by SRB assay; format: functional
SK-OV-3 = test: Growth inhibition of human SKOV3 cells after 48 hrs by SRB assay; format: functional; details: SK-OV-3, 48 h
786-0 = test: Growth inhibition of human 786-0 cells after 48 hrs by SRB assay; format: functional; details: 786-0, 48 h
A498 = test: Growth inhibition of human A498 cells after 48 hrs by SRB assay; format: functional; details: A498, 48 h
ACHN = test: Growth inhibition of human ACHN cells after 48 hrs by SRB assay; format: functional
CAKI-1 = test: Growth inhibition of human Caki1 cells after 48 hrs by SRB assay; format: functional; details: CAKI-1, 48 h
[23] = Growth inhibition of human RXF393 cells after 48 hrs by SRB assay; format: functional; details: RXF 393, 48 h
SN12C = test: Growth inhibition of human SN12C cells after 48 hrs by SRB assay; format: functional
TK-10 = test: Growth inhibition of human TK10 cells after 48 hrs by SRB assay; format: functional; details: TK-10, 48 h
[24] = Growth inhibition of human UO31 cells after 48 hrs by SRB assay; format: functional; details: UO-31, 48 h

## COc1cc(C(=O)/C=C/c2c(C(F)(F)F)nc3ccccn23)cc(OC)c1OC
PC-3
  GI50: 3.8 µM
DU-145
  GI50: 1610 nM
MCF7 [1]
  GI50: 1440 nM
MDA-MB-231
  GI50: 4.59 µM
[2]
  GI50: 3.27 µM
[3]
  GI50: 1640 nM
T47D
  GI50: 3.52 µM
MDA-MB-468
  GI50: 2120 nM
[4]
  GI50: 1660 nM
Malme-3M
  GI50: 1570 nM
M14
  GI50: 1820 nM
MDA-MB-435
  GI50: 2260 nM
SK-MEL-2
  GI50: 2430 nM
SK-MEL-28
  GI50: 1930 nM
SK-MEL-5
  GI50: 1620 nM
[5]
  GI50: 2050 nM
[6]
  GI50: 1660 nM
MCF7 [7]
  inhibition: Active
MCF7 [8]
  Activity: 95.24%
MCF7 [9]
  Activity: 4.1%
MCF7 [10]
  Activity: 0.66%
CCRF-CEM
  GI50: 4.15 µM
HL-60(TB)
  GI50: 4.12 µM
K562
  GI50: 2830 nM
[11]
  GI50: 3.73 µM
SR
  GI50: 2910 nM
RPMI-8226
  GI50: 1980 nM
A549
  GI50: 4.04 µM
[12]
  GI50: 2370 nM
HOP-62
  GI50: 2970 nM
[13]
  GI50: 2650 nM
NCI-H226
  GI50: 3.55 µM
NCI-H23
  GI50: 1510 nM
NCI-H322M
  GI50: 1660 nM
NCI-H460
  GI50: 2010 nM
NCI-H522
  GI50: 1770 nM
COLO 205
  GI50: 2110 nM
[14]
  GI50: 1830 nM
HCT-116
  GI50: 1260 nM
[15]
  GI50: 2100 nM
HT-29
  GI50: 1930 nM
KM12
  GI50: 1730 nM
SW-620
  GI50: 1680 nM
SF-268
  GI50: 1640 nM
[16]
  GI50: 1990 nM
[17]
  GI50: 1630 nM
SNB-19
  GI50: 1930 nM
SNB-75
  GI50: 1760 nM
U-251
  GI50: 1290 nM
IGROV-1
  GI50: 2230 nM
[18]
  GI50: 1830 nM
[19]
  GI50: 4.1 µM
[20]
  GI50: 1980 nM
[21]
  GI50: 3.39 µM
[22]
  GI50: 1410 nM
SK-OV-3
  GI50: 4.04 µM
786-0
  GI50: 1720 nM
A498
  GI50: 2400 nM
ACHN
  GI50: 1950 nM
CAKI-1
  GI50: 1820 nM
[23]
  GI50: 1870 nM
SN12C
  GI50: 2090 nM
TK-10
  GI50: 2090 nM
[24]
  GI50: 1490 nM
